{"source": "patent US7531622B2", "about": "“Synthesis and characterization of novel systems for guidance and vectorization of molecules of therapeutic interest towards target cells” (Centre National de la Recherche Scientifique- CNRS, priority 2002, dated 2009)", "tested_on": "HEK293 cells that overexpress integrin β3", "assay": "Internalization of fluorescein-labeled peptides, confocal microscopy with early endosome immunolabeling", "type": "cell-based", "details": "37° C., 15 to 30 minutes", "method": "3) Active internalization of drugs or vectorized products: The same cells, placed in contact at 37° C. or 4° C. for 15 to 30 minutes with peptides previously labeled with fluorescein, are observed by confocal microscopy after immunolabeling of the early endosome vesicles (anti-Early Endosome 1A labeling, visualized in red).\nIf incubation of the peptides is performed at 4° C., only the extracellular label is observed with the peptide obtained according to the invention, confirming that internalization takes place by way of an active process.", "note": "Non-standard residues stand in square brackets, D forms with d."}
{"substance": "cyclo(RGDfK) (cyclo(RGD[dF]K)) [cRGD]", "values": [{"measurement": "visualization / detection of the peptide on and in cells by fluorescence", "result": "not detectable by immunofluorescence"}, {"measurement": "internalization by endocytosis (co-localization with EE1A label)", "setting": "fluorescein-labeled peptide", "result": "not triggered"}]}
